Test results from article PMC9228282, “Catalytic Properties of Caseinolytic Protease Subunit of Plasmodium knowlesi and Its Inhibition by a Member of δ-Lactone, Hyptolide” (Molecules, 2022).
Like-named read-outs stand apart in the source and are kept apart here. Values belong to the compound of their own block, whether it stands above or below them.

Key:
[1] = molecular target: T1, caseinolytic protease proteolytic subunit of Plasmodium knowlesi (Pk-ClpP) (Plasmodium knowlesi, UniProt A0A384LAC0)
T1 construct: gene PKNH_0835300
T1 sequence (A0A384LAC0 141-372 limits assumed): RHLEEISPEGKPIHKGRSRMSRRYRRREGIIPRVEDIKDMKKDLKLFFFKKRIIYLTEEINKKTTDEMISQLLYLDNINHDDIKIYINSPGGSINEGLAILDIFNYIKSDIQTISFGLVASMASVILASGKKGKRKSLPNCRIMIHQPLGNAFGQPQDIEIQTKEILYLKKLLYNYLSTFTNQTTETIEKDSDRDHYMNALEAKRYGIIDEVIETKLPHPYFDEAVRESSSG

[2] = molecular target: T1, caseinolytic protease proteolytic subunit of Plasmodium knowlesi (Pk-ClpP); experiment: chromogenic protease assay with N-CBZ-Glycine p-nitrophenyl ester on purified Pk-ClpP; assay type: biochemical
[3] = molecular target: caseinolytic protease proteolytic subunit (ClpP) of Plasmodium knowlesi (Plasmodium knowlesi); experiment: SEC; purified Pk-ClpP on HiLoad 16/60 Superdex 200pg, 50 mM Tris-HCl pH 8.0, 50 mM NaCl, 0.5 mL/min; size by comparison with protein markers

Compound: O=C(CNC(=O)OCc1ccccc1)Oc1ccc([N+](=O)[O-])cc1 [N-CBZ-Glycine p-nitrophenyl ester]
- Km [1]: 3.07 ± 0.18 µM

- IC50 ([2]; read-out: IC50): 17.4 ± 1.44 nM
Compound: CC(=O)O[C@H](/C=C\[C@H]1CC=CC(=O)O1)C[C@@H](OC(C)=O)[C@H](C)OC(C)=O [Hyp, hyptolide]

Compound: O=S(=O)(F)Cc1ccccc1 [PMSF, phenylmethylsulfonyl fluoride, reference compound]
- IC50 [2]: 6.9 ± 0.18 nM

- stoichiometry N [3]: 7
Compound: caseinolytic protease proteolytic subunit (ClpP) of Plasmodium knowlesi (enzyme)
